# Test results from patent US12173088B2, “Anti-microbial peptides” (priority 2018, dated 2024).
# Like-named read-outs stand apart in the source and are kept apart here. Peptide text beside a SMILES is read from it.
# Experiments:
# S. aureus USA300 = assay: microbe, parasite or virus in culture; type: cell-based, Staphylococcus aureus
# Procedure, shortened: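 Broth microdilution: log-phase cultures in tryptic soy broth diluted to OD600 0.001, exposed to two-fold diluted peptides at 37° C overnight, growth read at 630 nm. Medium effects on S. aureus USA300 tested with up to 200 mM NaCl, 2 mM CaCl2, 5-10% human serum, mouse plasma, fluids or tissue homogenate supernatants.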
# P. aeruginosa PAO1 = type: cell-based, Pseudomonas aeruginosa
# Procedure, shortened: (§1)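 Broth microdilution in tryptic soy broth: log-phase cultures (OD600 ≈0.5) diluted to OD600 0.001, given two-fold peptide dilutions, incubated overnight at 37° C. Growth read at 630 nm.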
# E. coli ATCC 25922 = type: cell-based, Escherichia coli
# Procedure, shortened: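 Peptides, serially diluted two-fold, were incubated overnight at 37 °C with E. coli ATCC 25922 from log-phase cultures adjusted to OD600 0.001. Turbidity at 630 nm served as the read-out in this broth microdilution format.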
# Hemolytic assay = type: cell-based, human; details: human, human red blood cells, 2% (v/v)
# Procedure, shortened: (§2)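 HL50 marks the peptide level lysing half of a 2% (v/v) suspension of washed human erythrocytes after 1 h at 37 °C. Released hemoglobin measured at 545 nm, scaled between PBS (0%) and Triton X-100 (2% or 1%; 100%). Selectivity index computed as HL50 over MIC.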
# [1] = system: Klebsiella pneumoniae clinical strains; assay: microbe, parasite or virus in culture; details: Klebsiella pneumoniae
# Procedure: The antibacterial activity of peptides was evaluated using a standard broth microdilution protocol with minor modifications (Mishra, et al. (2017) Acta Biomater., 49:316-328). In brief, logarithmic phase bacterial cultures (i.e., optical density at 600 nm≈0.5) were diluted to 0.001 OD and aliquoted 90 μL per well into a 96-well polystyrene microplate. Added 10 μL peptides per well with various concentrations, plates were incubated at 37° C., overnight. Post incubation the plates are read at 630 nm using a ChroMate® Microplate Reader (GMI). […] To study the influence of medium conditions on the antimicrobial activity of peptides against S. aureus USA300 at different pHs (6.8, 7.2, and 8.0), 150 mM sodium chloride (NaCl), 5-10% of human serum, mouse plasma, and peritoneal fluid were included into the assays.
# K. pneumoniae ATCC 13883 = type: cell-based, Klebsiella pneumoniae; details: ATCC 13883
# Procedure, shortened: as §1
# [2] = system: human red blood cells (hRBCs); assay: Hemolytic assay; type: cell-based
# Procedure, shortened: as §2
# [3] = Table 4, quantitated based on weight
MIC SA (S. aureus USA300) (S. aureus USA300; USA300) [µM],MIC PA (P. aeruginosa PAO1) (P. aeruginosa PAO1; PAO1) [µM],MIC EC (E. coli ATCC 25922) (E. coli ATCC 25922; ATCC 25922) [µM],Structure (SMILES),HC50 at 1 h (Hemolytic assay) [µM],also measured
6.2,>25,>25,"CC(C)C[C@H](NC(=O)[C@H](CCCCN)NC(=O)CNC(=O)[C@H](CC(C)C)NC(=O)[C@H](CC(C)C)NC(=O)[C@H](CC(C)C)NC(=O)[C@H](CO)NC(=O)[C@H](CC(C)C)NC(=O)[C@H](CC(C)C)NC(=O)[C@H](CC(C)C)NC(=O)[C@H](CO)NC(=O)[C@H](CC(C)C)NC(=O)CN)C(N)=O [DFT504, GLSLLLSLLLGKL] (H-GLSLLLSLLLGKL-NH2; N-terminus and C-terminus assumed)",8,
,>25,>25,"CC(C)C[C@H](NC(=O)[C@H](CC(C)C)NC(=O)[C@H](CCCCN)NC(=O)[C@H](CC(C)C)NC(=O)CNC(=O)[C@H](CC(C)C)NC(=O)[C@H](CCCCN)NC(=O)[C@H](CC(C)C)NC(=O)[C@H](CC(C)C)NC(=O)[C@H](CC(C)C)NC(=O)[C@H](CCCCN)NC(=O)[C@H](CC(C)C)NC(=O)CN)C(N)=O [DFT564, GLKLLLKLGLKLL] (H-GLKLLLKLGLKLL-NH2; N-terminus and C-terminus assumed)",< 25,"MIC (S. aureus USA300; USA300): 3.1 µM; MIC (S. aureus USA300; USA300, pH 6.8): 1.6 µM; MIC (S. aureus USA300; USA300, pH 7.4): 3.1 µM; MIC (S. aureus USA300; USA300, pH 8): 1.6 µM"
1.6,>25,>25,"CC(C)C[C@H](NC(=O)[C@H](CC(C)C)NC(=O)[C@H](CCCCN)NC(=O)CNC(=O)[C@H](CC(C)C)NC(=O)[C@H](CC(C)C)NC(=O)[C@H](CO)NC(=O)[C@H](CC(C)C)NC(=O)[C@H](CC(C)C)NC(=O)[C@H](CC(C)C)NC(=O)[C@H](CO)NC(=O)[C@H](CC(C)C)NC(=O)CN)C(N)=O [DFT502, GLSLLLSLLGKLL] (H-GLSLLLSLLGKLL-NH2; N-terminus and C-terminus assumed)",3.1,
1.6,>25,>25,"CC(C)C[C@H](NC(=O)[C@H](CC(C)C)NC(=O)[C@H](CCCCN)NC(=O)[C@H](CC(C)C)NC(=O)CNC(=O)[C@H](CC(C)C)NC(=O)[C@H](CO)NC(=O)[C@H](CC(C)C)NC(=O)[C@H](CC(C)C)NC(=O)[C@H](CO)NC(=O)CNC(=O)[C@H](CC(C)C)NC(=O)[C@@H](N)CC(C)C)C(N)=O [DFT532, LLGSLLSLGLKLL] (H-LLGSLLSLGLKLL-NH2; N-terminus and C-terminus assumed)",13,
,,,"CN(C)c1cc(NC(=O)CNC(C)(C)C)c(O)c2c1C[C@H]1C[C@H]3[C@H](N(C)C)C(O)=C(C(N)=O)C(=O)[C@@]3(O)C(O)=C1C2=O [Tigecycline, reference compound]",,MIC ([1]; strain KP-231-18): 4 µM; MIC ([1]; strain KP-232-18): 8 µM; MIC ([1]; strain KP-245-18): 4 µM; MIC ([1]; strain KP-249-18): 2 µM; MIC ([1]; strain KP-253-18): 2 µM; MIC ([1]; strain KP-256-18): 4 µM; MIC ([1]; strain KP-257-18): 8 µM; MIC ([1]; strain KP-262-18): 4 µM; MIC ([1]; strain KP-270-18): 4 µM; MIC ([1]; strain KP-B42-15): < 2 µM; MIC ([1]; strain KP-B53-15): 2 µM; MIC ([1]; strain KP-B73-15): 2 µM; MIC ([1]; strain KP-B77-15): < 2 µM; MIC ([1]; strain KP-B1725-18): 2 µM
6.2,>25,>25,"CC(C)C[C@H](NC(=O)[C@H](CC(C)C)NC(=O)[C@H](CCCCN)NC(=O)[C@H](CC(C)C)NC(=O)[C@H](CCCCN)NC(=O)[C@H](CC(C)C)NC(=O)[C@H](CO)NC(=O)[C@H](CC(C)C)NC(=O)[C@H](CC(C)C)NC(=O)[C@H](CC(C)C)NC(=O)[C@H](CO)NC(=O)[C@H](CC(C)C)NC(=O)CN)C(N)=O [DFT563, GLSLLLSLKLKLL] (H-GLSLLLSLKLKLL-NH2; N-terminus and C-terminus assumed)",> 300,
,>25,>25,"CC(C)C[C@H](NC(=O)[C@H](CC(C)C)NC(=O)[C@H](CCCCN)NC(=O)[C@H](CC(C)C)NC(=O)CNC(=O)[C@H](CC(C)C)NC(=O)[C@H](CCCCN)NC(=O)[C@H](CC(C)C)NC(=O)[C@H](CC(C)C)NC(=O)[C@H](CC(C)C)NC(=O)[C@H](CO)NC(=O)[C@H](CC(C)C)NC(=O)CN)C(N)=O [DFT562, GLSLLLKLGLKLL] (H-GLSLLLKLGLKLL-NH2; N-terminus and C-terminus assumed)",< 25,
,,,"CC(C)C[C@H](NC(=O)[C@H](CC(C)C)NC(=O)[C@H](CCCCN)NC(=O)[C@H](CC(C)C)NC(=O)CNC(=O)[C@H](CC(C)C)NC(=O)[C@H](CO)NC(=O)[C@H](CC(C)C)NC(=O)[C@H](CC(C)C)NC(=O)[C@H](CO)NC(=O)[C@H](CC(C)C)NC(=O)[C@H](CC(C)C)NC(=O)CN)C(N)=O [DFT531, GLLSLLSLGLKLL] (H-GLLSLLSLGLKLL-NH2; N-terminus and C-terminus assumed)",,"MIC SA (S. aureus USA300) (S. aureus USA300; [3]): 0.8 µM; MIC PA (P. aeruginosa PAO1) (P. aeruginosa PAO1; [3]): >25 µM; MIC EC (E. coli ATCC 25922) (E. coli ATCC 25922; [3]): >25 µM; HC50 at 1 h (Hemolytic assay; Table 4, quantitated based on weight, read-out: HL50, peptide concentration for 50% hemolysis): 7 µM"
0.8,>25,>25,"CC(C)C[C@H](NC(=O)[C@H](CC(C)C)NC(=O)[C@H](CCCCN)NC(=O)[C@H](CC(C)C)NC(=O)CNC(=O)[C@H](CC(C)C)NC(=O)[C@H](CCCCN)NC(=O)[C@H](CC(C)C)NC(=O)[C@H](CC(C)C)NC(=O)[C@H](CC(C)C)NC(=O)[C@H](CCCCN)NC(=O)[C@H](CC(C)C)NC(=O)[C@@H](N)CCCCN)C(N)=O [DFT565, KLKLLLKLGLKLL] (H-KLKLLLKLGLKLL-NH2; N-terminus and C-terminus assumed)",50,"MIC (S. aureus USA300; USA300): 3.1 µM; MIC (S. aureus USA300; USA300, pH 6.8): 3.1 to 6.2 µM; MIC (S. aureus USA300; USA300, pH 7.4): 3.1 µM; MIC (S. aureus USA300; USA300, pH 8): 3.1 µM"
3.1,>25,>25,"CC(C)C[C@H](NC(=O)[C@H](CC(C)C)NC(=O)[C@H](CCCCN)NC(=O)CNC(=O)[C@H](CC(C)C)NC(=O)[C@H](CC(C)C)NC(=O)[C@H](CC(C)C)NC(=O)[C@H](CC(C)C)NC(=O)[C@H](CO)NC(=O)[C@H](CO)NC(=O)[C@H](CC(C)C)NC(=O)[C@H](CC(C)C)NC(=O)CN)C(N)=O [DFT505, GLLSSLLLLGKLL] (H-GLLSSLLLLGKLL-NH2; N-terminus and C-terminus assumed)",20,
3.1,>25,>25,"CC(C)C[C@H](NC(=O)[C@H](CC(C)C)NC(=O)CNC(=O)[C@H](CC(C)C)NC(=O)[C@H](CC(C)C)NC(=O)[C@H](CO)NC(=O)[C@H](CC(C)C)NC(=O)[C@H](CC(C)C)NC(=O)[C@H](CO)NC(=O)[C@H](CC(C)C)NC(=O)[C@H](CC(C)C)NC(=O)[C@H](CCCCN)NC(=O)CN)C(N)=O [DFT527, GKLLSLLSLLGLL] (H-GKLLSLLSLLGLL-NH2; N-terminus and C-terminus assumed)",20,
,,,"CC(C)C[C@H](NC(=O)[C@H](CC(C)C)NC(=O)[C@H](CCCCN)NC(=O)CNC(=O)[C@H](CC(C)C)NC(=O)[C@H](C)NC(=O)[C@H](CCCCN)NC(=O)[C@H](CC(C)C)NC(=O)[C@H](C)NC(=O)[C@H](CO)NC(=O)[C@H](CC(C)C)NC(=O)[C@H](C)NC(=O)CN)C(N)=O [DFT528, GALSALKALGKLL] (H-GALSALKALGKLL-NH2; N-terminus assumed)",,MIC S. aureus USA 300 (S. aureus USA300; USA300): 25 µM; MIC against S. aureus (S. aureus USA300; USA300): 12.5 to 25 µM; MIC P. aeruginosa PAO1 (P. aeruginosa PAO1; PAO1): >25 µM; MIC E. coli ATCC 25922 (E. coli ATCC 25922; ATCC 25922): 25 µM; MIC K. pneumoniae (K. pneumoniae ATCC 13883): >25 µM; HL50 [2]: >50 µM

Structure (SMILES),MIC SA (S. aureus USA300) (S. aureus USA300; USA300) [µM],MIC PA (P. aeruginosa PAO1) (P. aeruginosa PAO1; PAO1) [µM],MIC EC (E. coli ATCC 25922) (E. coli ATCC 25922; ATCC 25922) [µM],HC50 at 1 h (Hemolytic assay) [µM],also measured
"CC(C)C[C@H](NC(=O)[C@H](CC(C)C)NC(=O)[C@H](CCCCN)NC(=O)[C@H](CC(C)C)NC(=O)CNC(=O)[C@H](CC(C)C)NC(=O)[C@H](CO)NC(=O)[C@H](CC(C)C)NC(=O)[C@H](CC(C)C)NC(=O)[C@H](CC(C)C)NC(=O)[C@H](CO)NC(=O)[C@H](CC(C)C)NC(=O)[C@@H](N)CCCCN)C(N)=O [DFT560, KLSLLLSLGLKLL] (H-KLSLLLSLGLKLL-NH2; N-terminus and C-terminus assumed)",,>25,>25,25,MIC SA (S. aureus USA300) (S. aureus USA300; [3]): 1.6 µM
